Here are results for eleven compounds from patent US12516095B2, “Peptide hormone analogues” (IP2IPO INNOVATIONS LIMITED, priority 2019, dated 2026).

Starred links: 1 amine or outer side, 2 acyl side, 3 side chain; linkers in the order of their positions; H or OH if unused. Non-standard residues stand in square brackets, D forms with d. Residues, ends and D or L forms follow the SMILES beside them. Groups on a side chain read outwards from the residue. *: point of attachment. C20 diacid = O=C(O)CCCCCCCCCCCCCCCCCCC(=O)*; C18 diacid = O=C(O)CCCCCCCCCCCCCCCCC(=O)*; γGlu = O=C(O)[C@H](CCC(=O)[*:2])N[*:1]; Aib = CC(C)(N)C(=O)O

The first series in a line: PK measurements for half life assessment in pigs. The series is classed as in vivo, pig. To be noted: male large white pigs, single subcutaneous injection, plasma; time from tmax to half of Cmax; typically mean of four animals. The method, then: Male large white pigs receive a single subcutaneous injection of the test compound at the start of study (0 hours). Repeated blood samples were taken from the pig over the proceeding 168 hours and plasma separated and stored at −20 to −80° C. Plasma concentration of the test compound was quantified using a radioimmunoassay or mass spectrum analysis. Time taken from tmax to half of Cmax was calculated and represents the half-life (t½) of the compound. Typically, the presented t½ is the mean of four separate animals.
Compound “H-H[Aib]HGTFTSDYSKYLDAKRAQEFIEWLLQSHHQQHESPPPGK([γGlu-C20 diacid])-OH [Example 701]” displayed a Half life of 66 h.

The same series, now with this note: male, large white, pig, plasma, sc, single subcutaneous injection, time from tmax to half of Cmax, typically mean of four animals.
As usually defined, the half-life is the time in which the quantity being followed falls by half. High values mean slow loss, low ones fast loss. In turn, `CC[C@H](C)[C@H](NC(=O)[C@H](Cc1ccccc1)NC(=O)[C@H](CCC(=O)O)NC(=O)[C@H](Cc1c[nH]cn1)NC(=O)[C@H](C)NC(=O)[C@H](CCCNC(=N)N)NC(=O)[C@H](CCCCN)NC(=O)[C@H](C)NC(=O)[C@H](CC(=O)O)NC(=O)[C@H](CC(C)C)NC(=O)[C@H](Cc1ccc(O)cc1)NC(=O)[C@H](CCCCN)NC(=O)[C@H](CO)NC(=O)[C@H](Cc1ccc(O)cc1)NC(=O)[C@H](CC(=O)O)NC(=O)[C@H](CO)NC(=O)[C@@H](NC(=O)[C@H](Cc1ccccc1)NC(=O)[C@@H](NC(=O)CNC(=O)[C@H](Cc1c[nH]cn1)NC(=O)C(C)(C)NC(=O)[C@@H](N)Cc1c[nH]cn1)[C@@H](C)O)[C@@H](C)O)C(=O)N[C@@H](CCC(=O)O)C(=O)N[C@@H](Cc1c[nH]c2ccccc12)C(=O)N[C@@H](CC(C)C)C(=O)N[C@@H](CC(C)C)C(=O)N[C@@H](CCC(N)=O)C(=O)N[C@@H](CO)C(=O)N[C@@H](Cc1c[nH]cn1)C(=O)N[C@@H](CCC(N)=O)C(=O)N[C@@H](CCC(N)=O)C(=O)N[C@@H](Cc1c[nH]cn1)C(=O)N[C@@H](CCC(=O)O)C(=O)N[C@@H](CO)C(=O)N1CCC[C@H]1C(=O)N1CCC[C@H]1C(=O)N1CCC[C@H]1C(=O)NCC(=O)N[C@@H](CCCCNC(=O)[C@H](CC(N)=O)NC(=O)CC[C@H](NC(=O)CCCCCCCCCCCCCCCCCCC(=O)O)C(=O)O)C(=O)O` [Example 652] (H-H[Aib]HGTFTSDYSKYLDAKRAHEFIEWLLQSHQQHESPPPGK([Asn-γGlu-C20 diacid])-OH) showed a half-life of 116 h.

Compound `CC[C@H](C)[C@H](NC(=O)[C@H](Cc1ccccc1)NC(=O)[C@H](CCC(=O)O)NC(=O)[C@H](CCCNC(=N)N)NC(=O)[C@H](C)NC(=O)[C@H](CCCNC(=N)N)NC(=O)[C@H](CCCCN)NC(=O)[C@H](C)NC(=O)[C@H](CC(=O)O)NC(=O)[C@H](CC(C)C)NC(=O)[C@H](Cc1ccc(O)cc1)NC(=O)[C@H](CCCCN)NC(=O)[C@H](CO)NC(=O)[C@H](Cc1ccc(O)cc1)NC(=O)[C@H](CC(=O)O)NC(=O)[C@H](CO)NC(=O)[C@@H](NC(=O)[C@H](Cc1ccccc1)NC(=O)[C@@H](NC(=O)CNC(=O)[C@H](Cc1c[nH]cn1)NC(=O)C(C)(C)NC(=O)[C@@H](N)Cc1c[nH]cn1)[C@@H](C)O)[C@@H](C)O)C(=O)N[C@@H](CCC(=O)O)C(=O)N[C@@H](Cc1c[nH]c2ccccc12)C(=O)N[C@@H](CC(C)C)C(=O)N[C@@H](CC(C)C)C(=O)N[C@@H](CCC(N)=O)C(=O)N[C@@H](CO)C(=O)N[C@@H](Cc1c[nH]cn1)C(=O)N[C@@H](CCC(N)=O)C(=O)N[C@@H](CCC(N)=O)C(=O)N[C@@H](Cc1c[nH]cn1)C(=O)N[C@@H](CCC(=O)O)C(=O)N[C@@H](CO)C(=O)N1CCC[C@H]1C(=O)N1CCC[C@H]1C(=O)N1CCC[C@H]1C(=O)NCC(=O)N[C@@H](CCCCNC(=O)[C@H](CC(N)=O)NC(=O)CC[C@H](NC(=O)CCCCCCCCCCCCCCCCCCC(=O)O)C(=O)O)C(=O)O` [Example 704] (H-H[Aib]HGTFTSDYSKYLDAKRAREFIEWLLQSHQQHESPPPGK([Asn-γGlu-C20 diacid])-OH) showed a half-life of 96 h. This half-life and that of the compound before are within 1.5-fold of each other.

In turn, `CC[C@H](C)[C@H](NC(=O)[C@H](Cc1ccccc1)NC(=O)[C@H](CCC(=O)O)NC(=O)[C@H](CCCNC(=N)N)NC(=O)[C@H](C)NC(=O)[C@H](CCCNC(=N)N)NC(=O)[C@H](CCCCN)NC(=O)[C@H](C)NC(=O)[C@H](CC(=O)O)NC(=O)[C@H](CC(C)C)NC(=O)[C@H](Cc1ccc(O)cc1)NC(=O)[C@H](CCCCN)NC(=O)[C@H](CO)NC(=O)[C@H](Cc1ccc(O)cc1)NC(=O)[C@H](CC(=O)O)NC(=O)[C@H](CO)NC(=O)[C@@H](NC(=O)[C@H](Cc1ccccc1)NC(=O)[C@@H](NC(=O)CNC(=O)[C@H](Cc1c[nH]cn1)NC(=O)C(C)(C)NC(=O)[C@@H](N)Cc1c[nH]cn1)[C@@H](C)O)[C@@H](C)O)C(=O)N[C@@H](CCC(=O)O)C(=O)N[C@@H](Cc1c[nH]c2ccccc12)C(=O)N[C@@H](CC(C)C)C(=O)N[C@@H](CC(C)C)C(=O)N[C@@H](CCC(N)=O)C(=O)N[C@@H](CO)C(=O)N[C@@H](Cc1c[nH]cn1)C(=O)N[C@@H](CCC(N)=O)C(=O)N[C@@H](CCC(N)=O)C(=O)N[C@@H](Cc1c[nH]cn1)C(=O)N1CCC[C@H]1C(=O)N[C@@H](CO)C(=O)N1CCC[C@H]1C(=O)N1CCC[C@H]1C(=O)N1CCC[C@H]1C(=O)NCC(=O)N[C@@H](CCCCNC(=O)[C@H](CC(N)=O)NC(=O)CC[C@H](NC(=O)CCCCCCCCCCCCCCCCCCC(=O)O)C(=O)O)C(=O)O` [Example 705] (H-H[Aib]HGTFTSDYSKYLDAKRAREFIEWLLQSHQQHPSPPPGK([Asn-γGlu-C20 diacid])-OH) gave a half-life of 84 h.

The compound `CC[C@H](C)[C@H](NC(=O)[C@H](Cc1ccccc1)NC(=O)[C@H](CCC(=O)O)NC(=O)[C@H](CCC(N)=O)NC(=O)[C@H](C)NC(=O)[C@H](CCCNC(=N)N)NC(=O)[C@H](CCCCN)NC(=O)[C@H](C)NC(=O)[C@H](CC(=O)O)NC(=O)[C@H](CC(C)C)NC(=O)[C@H](Cc1ccc(O)cc1)NC(=O)[C@H](CCCCN)NC(=O)[C@H](CO)NC(=O)[C@H](Cc1ccc(O)cc1)NC(=O)[C@H](CC(=O)O)NC(=O)[C@H](CO)NC(=O)[C@@H](NC(=O)[C@H](Cc1ccccc1)NC(=O)[C@@H](NC(=O)CNC(=O)[C@H](Cc1c[nH]cn1)NC(=O)C(C)(C)NC(=O)[C@@H](N)Cc1c[nH]cn1)[C@@H](C)O)[C@@H](C)O)C(=O)N[C@@H](CCC(=O)O)C(=O)N[C@@H](Cc1c[nH]c2ccccc12)C(=O)N[C@@H](CC(C)C)C(=O)N[C@@H](CC(C)C)C(=O)N[C@@H](CCC(N)=O)C(=O)N[C@@H](CO)C(=O)N[C@@H](Cc1c[nH]cn1)C(=O)N[C@@H](CCC(N)=O)C(=O)N[C@@H](CCC(N)=O)C(=O)N[C@@H](Cc1c[nH]cn1)C(=O)N1CCC[C@H]1C(=O)N[C@@H](CO)C(=O)N1CCC[C@H]1C(=O)N1CCC[C@H]1C(=O)N1CCC[C@H]1C(=O)NCC(=O)N[C@@H](CCCCNC(=O)[C@H](CC(N)=O)NC(=O)CC[C@H](NC(=O)CCCCCCCCCCCCCCCCCCC(=O)O)C(=O)O)C(=O)O` [Example 706] (H-H[Aib]HGTFTSDYSKYLDAKRAQEFIEWLLQSHQQHPSPPPGK([Asn-γGlu-C20 diacid])-OH) had a half-life of 110 h.

For `CC[C@H](C)[C@H](NC(=O)[C@H](Cc1ccccc1)NC(=O)[C@H](CCC(=O)O)NC(=O)[C@H](CCC(N)=O)NC(=O)[C@H](C)NC(=O)[C@H](CCCNC(=N)N)NC(=O)[C@H](CCCCN)NC(=O)[C@H](C)NC(=O)[C@H](CC(=O)O)NC(=O)[C@H](CC(C)C)NC(=O)[C@H](Cc1ccc(O)cc1)NC(=O)[C@H](CCCCN)NC(=O)[C@H](CO)NC(=O)[C@H](Cc1ccc(O)cc1)NC(=O)[C@H](CC(=O)O)NC(=O)[C@H](CO)NC(=O)[C@@H](NC(=O)[C@H](Cc1ccccc1)NC(=O)[C@@H](NC(=O)CNC(=O)[C@H](Cc1c[nH]cn1)NC(=O)C(C)(C)NC(=O)[C@@H](N)Cc1c[nH]cn1)[C@@H](C)O)[C@@H](C)O)C(=O)N[C@@H](CCC(=O)O)C(=O)N[C@@H](Cc1c[nH]c2ccccc12)C(=O)N[C@@H](CC(C)C)C(=O)N[C@@H](CC(C)C)C(=O)N[C@@H](CCC(N)=O)C(=O)N[C@@H](CO)C(=O)N[C@@H](Cc1c[nH]cn1)C(=O)N[C@@H](CCC(N)=O)C(=O)N[C@@H](CCC(N)=O)C(=O)N[C@@H](Cc1c[nH]cn1)C(=O)N1CCC[C@H]1C(=O)N[C@@H](CO)C(=O)N[C@@H](CO)C(=O)N[C@@H](CO)C(=O)N[C@@H](CO)C(=O)N[C@@H](C)C(=O)N[C@@H](CCCCNC(=O)[C@H](CC(N)=O)NC(=O)CC[C@H](NC(=O)CCCCCCCCCCCCCCCCCCC(=O)O)C(=O)O)C(=O)O` [Example 707] (H-H[Aib]HGTFTSDYSKYLDAKRAQEFIEWLLQSHQQHPSSSSAK([Asn-γGlu-C20 diacid])-OH), the half-life was 103 h. This half-life and that of the compound before are within 1.5-fold of each other.

As to `CC[C@H](C)[C@H](NC(=O)[C@H](Cc1ccccc1)NC(=O)[C@H](CCC(=O)O)NC(=O)[C@H](CCC(N)=O)NC(=O)[C@H](C)NC(=O)[C@H](CCCNC(=N)N)NC(=O)[C@H](CCCCN)NC(=O)[C@H](C)NC(=O)[C@H](CC(=O)O)NC(=O)[C@H](CC(C)C)NC(=O)[C@H](Cc1ccc(O)cc1)NC(=O)[C@H](CCCCN)NC(=O)[C@H](CO)NC(=O)[C@H](Cc1ccc(O)cc1)NC(=O)[C@H](CC(=O)O)NC(=O)[C@H](CO)NC(=O)[C@@H](NC(=O)[C@H](Cc1ccccc1)NC(=O)[C@@H](NC(=O)CNC(=O)[C@H](Cc1c[nH]cn1)NC(=O)C(C)(C)NC(=O)[C@@H](N)Cc1c[nH]cn1)[C@@H](C)O)[C@@H](C)O)C(=O)N[C@@H](CCC(=O)O)C(=O)N[C@@H](Cc1c[nH]c2ccccc12)C(=O)N[C@@H](CC(C)C)C(=O)N[C@@H](CC(C)C)C(=O)N[C@@H](CCC(N)=O)C(=O)N[C@@H](CO)C(=O)N[C@@H](Cc1c[nH]cn1)C(=O)N[C@@H](CCC(N)=O)C(=O)N[C@@H](CCC(N)=O)C(=O)N[C@@H](Cc1c[nH]cn1)C(=O)N1CCC[C@H]1C(=O)N[C@@H](CO)C(=O)N[C@@H](CO)C(=O)N[C@@H](CO)C(=O)N[C@@H](C)C(=O)N[C@@H](CCCCNC(=O)[C@H](CC(N)=O)NC(=O)CC[C@H](NC(=O)CCCCCCCCCCCCCCCCCCC(=O)O)C(=O)O)C(=O)O` [Example 708] (H-H[Aib]HGTFTSDYSKYLDAKRAQEFIEWLLQSHQQHPSSSAK([Asn-γGlu-C20 diacid])-OH), the half-life is 105 h. This half-life and that of the compound before are within 1.5-fold of each other.

Take “H-H[Aib]HGTFTSDYSKYLDAKRAQEFIEWLLQSHHQQHESPPPGK([Asn-γGlu-C20 diacid])-OH [Example 647]”: the half-life was 106 h.

With “H-H[Aib]HGTFTSDYSKYLDAKRAQEFIEWLLQSHHQQHESPPPGK([γGlu-C20 diacid])-OH [Example 646]”, the half-life was 42 h.

As to “H-H[Aib]HGTFTSDYSKYLDAKRAQEFIEWLLQSHQHQHESPPPGK([His-Asn-γGlu-C18 diacid])-OH [Example 640]”, the half-life is 135 h.

“H-H[Aib]HGTFTSDYSKYLDAKRAQEFIEWLLQSHQQHHESPPPGK([γGlu-C20 diacid])-OH [Example 642]” showed a half-life of 109 h.
